Where “and” joins values, the source holds several entries; their conditions need not be identical. Equal values may be shown once.
How the values were obtained:
BR16 CTC-derived cells = experiment: FDA-approved compound screen for CTC cluster dissociation (high content imaging); format: cell-based, human; details: even at lowest concentration tested (0.1 μM), 2 days, hypoxia
Method: In order to identify actionable vulnerabilities of CTC clusters, and to test whether the epigenetic and transcriptional features of clustered CTCs are reversible upon cluster dissociation into single cells the following steps were undertaken. First, the expression of all known cell-cell junction (CCJ) components in patient samples obtained from normal breast (TGCA REF), breast cancer (TOGA REF), single CTCs and CTC clusters were assessed (Aceto et al. Cell 2014). While breast cancer cells tend to only partially reduce their CCJ repertoire compared to normal breast cells, CTCs express only a small fraction of CCJ components, likely as a consequence to their increased motility. Yet, CTC clusters retain a higher number of CCJs as compared to single CTCs. […] To this end, 2′486 FDA-approved compounds were evaluated for their ability to dissociate clusters of human breast CTC-derived cells. Cluster dissociation was assessed using a high content screening microscope and comparing cells treated with each individual compound to steady state clustered BR16 cells and 40 μm-filtered BR16 single cell suspension as negative and positive controls, respectively (FIG. 4a). […] For the majority of the 2′486 FDA-approved compounds, when using a 5 μM concentration for 2 days in hypoxic conditions, no detectable reduction in cell viability (>70% viability) nor mean cluster size (>450 μm2) in BR16 CTC-derived cells was observed. […] These compounds include inhibitors of Na^+/K^+ ATPases (n=6), HDACs (n=2), nucleotide biosynthesis (n=5), kinases (n=4), GPCRs (n=2), cholesterol biosynthesis (n=1), nuclear export (n=1), tubulin (n=9), as well as DNA binding compounds (n=8) and antibiotics (n=1).
A library containing 2,486 FDA-approved compounds was purchased from the Nexus Platform ETH Zurich. Each compound was resuspended using CTC medium at a 15 μM concentration and 20 μl were aliquoted in duplicate in a total of 64 Flat Bottom Clear Ultra Low attachment 96-well plates (Corning, Cat #3474).
To reduce cluster size in CTC derived cell lines, a 40 μm cell strainer was used (Corning, Cat #431750). […] Plates were incubated in hypoxia (5% oxygen) for 2 days and then 20 μl were transferred into a 96 well Black/clear Tissue culture treated plate (BD Falcon, Cat #353219) containing 40 μl of D-PBS (Invitrogen, Cat #14190169) and stained for 1 hr at 37° C. with a final concentration of 4 μM Hoechst 34580 (Invitrogen, Cat #H21486), 2 μM TMRM (Invitrogen, Cat #T668) and 4 μM TOTO-3 (Invitrogen, Cat #T3604). For each plate, two positive controls (non-treated cells) and two negative controls (non-treated and […] cells) were included. Z-factors were calculated per individual plate using the following formula: Z′=1−3(σs+σc)/|μs−μc|^3 (σ: standard deviation, μ: mean, s: positive control and c: negative control) (Martin et al., PLoS One 9, e88338, 2014) and ranged between 0.62-0.937. Plates were scanned using Operetta High Content Imaging System (Perkin Elmer) and cluster analysis was performed using Harmony High Content Imaging and Analysis Software (Perkin Elmer).

[1] = tested on: BRx50 human CTC-derived cells; experiment: as above; format: cell-based; details: even at lowest concentration tested (0.1 μM)
BR16 cells = experiment: Tail vein injection of in vitro pre-treated BR16 cells, metastasis seeding; format: in vivo, NSG mice
Method: To test whether ouabain and digitoxin would also enable CTC clusters disruption in vivo, the inventors took a dual approach. First, the inventors tested whether a 17-day in vitro treatment with ouabain and digitoxin would translate into a reduced ability of the treated cells to efficiently seed metastasis in untreated mice (FIG. 7A). To this end, upon treatment, BR16 cells stably expressing GFP-luciferase were injected into the tail vein of NSG mice and noninvasively monitored through luminescence imaging for their ability to seed and propagate metastatic lesions.
For tail vein experiments, NOD SCID Gamma (NSG) mice (Jackson Labs) were injected with 1×10^6 BR16-mCherry cells resuspended in 100 μl D-PBS and monitored with IVIS Lumina II (Perkin Elmer). For CTC xenograft mouse model isolation, 1×10^6 LM2-GFP, 1×10^6 BRx50-GFP or 1×10^6 BR16-GFP cells were resuspended in 100 μl of 50% Cultrex PathClear Reduced Growth Factor Basement Membrane Extract (R&D Biosystems, Cat #3533-010-02) in D-PBS and injected orthotopically in NSG mice. Blood draw was performed 4-5 weeks after tumor onset for LM2 cells, 5-6 months after tumor onset for BR16 and 6-7 months after tumor onset for BRx50 cells.

BRx50 CTC cell line = experiment: 17-day treatment, WGBS and i-cisTarget analysis of DMRs that gain methylation; format: cell-based, human; details: 20 nM
Method: (§1) In order to assess the effect of clustering on DNA methylation patterns and proliferation signature directly BR16 and BRx50 cell lines were cultured for 17 days to ensure that at least 4 divisions would take place. This is to allow proper time for DNA methylation remodeling to take place.
(§2) Under these conditions, for both CTC derived cell lines, a subset of cluster-associated hypomethylated DMRs from patient and xenografts regain ≥20% methylation.
(§3) Proteinase K digestion and bisulfite treatment was performed according to manufacturer's instructions for EZ DNA Methylation Direct Kit (Zymo, Cat #D5020). Bisulfite-treated DNA was eluted using 9 μl of Elution Buffer and used for library generation with TruSeq DNA methylation kit (Illumina, Cat #EGMK91396) according to manufacturer's instructions. For amplification, 18 cycles were performed using Failsafe Enzyme (Illumina, Cat #FSE51100) and indexes were introduced with Index Primers' Kit (Illumina, Cat #EGIDX81312). Library purification was performed using Agencourt AMPure XP beads at a ratio of 1:1 according to manufacturer's instructions. To avoid DNA loss during pipetting steps, Corning DeckWork low binding barrier pipet tips were used (Sigma, Cat #CLS4135-4X960EA). Library concentration was estimated using Qubit DS DNA HS Assay Kit according to manufacturer's instructions (Invitrogen, Cat #Q32854).
(§4) An enrichment score (ES) indicates the over- or underrepresentation of a certain object within a sample of many objects (=enrichment). […] A negative enrichment score indicates the opposite, namely that a feature is less present than to be expected by the values of other features in the sample. […] An enrichment score can be normalized by dividing a specific ES by the mean of the enrichment scores for all objects in the dataset to yield a normalized enrichment score (NES). Normalization of the enrichment score accounts for differences in gene set size and in correlations between gene sets and the expression dataset; therefore, a normalized enrichment scores (NES) can be used to compare analysis results across gene sets. Only TFBS with a NES score […] shown in the analysis.

BR16 CTC cell line = experiment: as above; format: cell-based, human; details: 20 nM, 17-day treatment
Method: as §1, §2, §3, §4

## C[C@H]1O[C@@H](O[C@H]2[C@@H](O)C[C@H](O[C@H]3[C@@H](O)C[C@H](O[C@H]4CC[C@@]5(C)[C@H](CC[C@@H]6[C@@H]5CC[C@]5(C)[C@@H](C7=CC(=O)OC7)CC[C@]65O)C4)O[C@@H]3C)O[C@@H]2C)C[C@H](O)[C@@H]1O [digitoxin, Digitoxin]
BR16 CTC-derived cells
  mean cluster size: significant decrease in mean cluster size
[1]
  mean cluster size: significant decrease in mean cluster size
BR16 cells; cancer cells in lungs, pre-treated cells, day 1
  expression of cleaved caspase 3 compared to control cells: significant increase
BR16 cells; cells pre-treated 17 days in vitro, 20 nM, tail vein, day 0
  ability of BR16 cells to lodge in the lung tissue immediately after injection (bioluminescence flux): did not affect
BR16 cells; cells pre-treated 17 days in vitro, 20 nM, tail vein, day 1
  ability to survive during the first day upon arrival (bioluminescence flux): reduced ability to survive
BR16 cells; pre-treated cells, no further treatment in vivo, 72 days upon injection
  metastatic outgrowth: delayed metastatic outgrowth
BRx50 CTC cell line
  NES score of TFBS BCL11A in DMRs with ≥20% gain in methylation: 7.65
  NES score of TFBS BDP1 in DMRs with ≥20% gain in methylation: 6.83
  NES score of TFBS BHLHE40/4 in DMRs with ≥20% gain in methylation: 4.61
  NES score of TFBS FOS in DMRs with ≥20% gain in methylation: 4.2 and 3.4
  NES score of TFBS HMBOX1 in DMRs with ≥20% gain in methylation: 3.749
  NES score of TFBS HSF1 in DMRs with ≥20% gain in methylation: 7.2
  NES score of TFBS KDM5D in DMRs with ≥20% gain in methylation: 3.77
  NES score of TFBS LEF1 in DMRs with ≥20% gain in methylation: 3.01
  NES score of TFBS LSM6 in DMRs with ≥20% gain in methylation: 3.05
  NES score of TFBS OCT4 in DMRs with ≥20% gain in methylation: 3.49 and 3.4 and 3.37
  NES score of TFBS POU1F1 in DMRs with ≥20% gain in methylation: 4.02 and 3.98
  NES score of TFBS REST in DMRs with ≥20% gain in methylation: 4.85 and 3.16 and 3.11
  NES score of TFBS STAT3 in DMRs with ≥20% gain in methylation: 3.22
  NES score of TFBS ZKSCAN8 in DMRs with ≥20% gain in methylation: 4.32
  NES score of TFBS ZNF493 in DMRs with ≥20% gain in methylation: 3.88
  number of DMRs with ≥20% gain in methylation: (n = 124)
BR16 CTC cell line
  NES score of TFBS BDP1 in DMRs with ≥20% gain in methylation: 4.18,
  NES score of TFBS CEBPD in DMRs with ≥20% gain in methylation: 3.76
  NES score of TFBS EZH2 in DMRs with ≥20% gain in methylation: 4.63
  NES score of TFBS FOS in DMRs with ≥20% gain in methylation: 6.40 and 3.63 and 3.25
  NES score of TFBS FOXG1/O1 in DMRs with ≥20% gain in methylation: 3.61
  NES score of TFBS IRX3 in DMRs with ≥20% gain in methylation: 5
  NES score of TFBS IRX6 in DMRs with ≥20% gain in methylation: 5 and 3.67
  NES score of TFBS KDM5A in DMRs with ≥20% gain in methylation: 4.355
  NES score of TFBS MEIS1 in DMRs with ≥20% gain in methylation: 3.11
  NES score of TFBS RORA in DMRs with ≥20% gain in methylation: 4.93 and 3.45
  NES score of TFBS SOX2 in DMRs with ≥20% gain in methylation: 3.22
  NES score of TFBS SOX18 in DMRs with ≥20% gain in methylation: 3.99 and 3.91
  NES score of TFBS STAT3 in DMRs with ≥20% gain in methylation: 3.31
  NES score of TFBS YAP5 in DMRs with ≥20% gain in methylation: 5.4 and 5.32 and 4.56
  NES score of TFBS ZNF92 in DMRs with ≥20% gain in methylation: 3.44
  number of DMRs with ≥20% gain in methylation: (n = 150)

Source: patent US20220062317A1, “NA+/K+ ATPASE INHIBITORS FOR USE IN THE PREVENTION OR TREATMENT OF METASTASIS” (UNIVERSITÄT BASEL, priority 2018, published 2022)
